In publication doi:10.1101/2020.07.24.219071v1 (biorxiv, 2020):

Experiments:
Experiment in all cases: MicroScale Thermophoresis
Menin = biological target: T1, Menin (Homo sapiens, UniProt O00255); type: binding
T1 sequence (O00255 1-610): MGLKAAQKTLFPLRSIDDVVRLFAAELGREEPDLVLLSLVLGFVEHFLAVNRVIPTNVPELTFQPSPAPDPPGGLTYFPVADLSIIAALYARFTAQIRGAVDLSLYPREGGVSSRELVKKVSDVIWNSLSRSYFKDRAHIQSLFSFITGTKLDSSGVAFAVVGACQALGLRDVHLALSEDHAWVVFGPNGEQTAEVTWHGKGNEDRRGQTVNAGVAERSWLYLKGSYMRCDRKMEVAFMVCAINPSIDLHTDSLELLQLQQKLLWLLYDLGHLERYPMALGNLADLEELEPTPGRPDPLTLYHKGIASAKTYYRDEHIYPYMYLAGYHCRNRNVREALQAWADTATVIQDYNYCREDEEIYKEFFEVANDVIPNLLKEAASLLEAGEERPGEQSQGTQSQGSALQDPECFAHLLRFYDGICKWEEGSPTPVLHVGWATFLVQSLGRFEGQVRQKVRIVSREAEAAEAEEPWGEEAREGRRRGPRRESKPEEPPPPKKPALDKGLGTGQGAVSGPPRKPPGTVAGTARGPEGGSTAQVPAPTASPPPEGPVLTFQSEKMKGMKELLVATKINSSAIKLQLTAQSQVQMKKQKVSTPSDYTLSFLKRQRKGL

[1] = biological target: Glutamate receptor 2 (GRIA2) (Homo sapiens, UniProt P42262); type: binding
Glutamate receptor 2 (GRIA2), sequence (P42262 25-543 limits assumed): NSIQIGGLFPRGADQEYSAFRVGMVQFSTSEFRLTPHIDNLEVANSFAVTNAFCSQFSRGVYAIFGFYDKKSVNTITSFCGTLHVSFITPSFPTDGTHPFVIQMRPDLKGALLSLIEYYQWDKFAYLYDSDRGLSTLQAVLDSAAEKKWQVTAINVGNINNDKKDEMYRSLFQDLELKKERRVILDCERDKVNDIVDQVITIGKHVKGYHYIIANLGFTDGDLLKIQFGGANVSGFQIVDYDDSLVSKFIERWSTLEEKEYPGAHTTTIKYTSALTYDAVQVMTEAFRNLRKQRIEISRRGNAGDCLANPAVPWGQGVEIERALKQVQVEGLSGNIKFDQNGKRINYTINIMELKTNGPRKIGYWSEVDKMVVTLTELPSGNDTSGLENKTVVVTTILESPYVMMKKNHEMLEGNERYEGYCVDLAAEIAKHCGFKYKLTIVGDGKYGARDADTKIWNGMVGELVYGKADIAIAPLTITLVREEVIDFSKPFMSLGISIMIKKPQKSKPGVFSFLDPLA

[2] = biological target: Nicotinamide/nicotinic acid mononucleotide adenylyltransferase 1 (NMNAT1) (Homo sapiens, UniProt Q9HAN9); type: binding
Nicotinamide/nicotinic acid mononucleotide adenylyltransferase 1 (NMNAT1), sequence (Q9HAN9 whole entry): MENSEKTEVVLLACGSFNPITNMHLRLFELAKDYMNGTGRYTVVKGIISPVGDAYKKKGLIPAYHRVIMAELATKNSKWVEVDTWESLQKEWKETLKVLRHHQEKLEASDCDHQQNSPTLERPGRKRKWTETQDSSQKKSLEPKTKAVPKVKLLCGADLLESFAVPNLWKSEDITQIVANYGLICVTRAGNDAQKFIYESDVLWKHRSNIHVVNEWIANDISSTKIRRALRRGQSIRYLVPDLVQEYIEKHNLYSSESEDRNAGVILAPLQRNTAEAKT

[3] = biological target: Hematopoietic prostaglandin D synthase (HPGDS) (Homo sapiens, UniProt O60760); type: binding
Hematopoietic prostaglandin D synthase (HPGDS), sequence (O60760 whole entry): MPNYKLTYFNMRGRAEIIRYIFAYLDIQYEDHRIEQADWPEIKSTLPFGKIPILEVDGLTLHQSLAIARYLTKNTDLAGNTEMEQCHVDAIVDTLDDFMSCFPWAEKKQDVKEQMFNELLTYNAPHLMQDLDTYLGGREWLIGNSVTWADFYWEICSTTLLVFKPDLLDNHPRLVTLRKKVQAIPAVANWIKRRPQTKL

[4] = biological target: T2, Fatty acid-binding protein 4 (FABP4) (Homo sapiens, UniProt P15090)
T2 sequence (P15090 2-132): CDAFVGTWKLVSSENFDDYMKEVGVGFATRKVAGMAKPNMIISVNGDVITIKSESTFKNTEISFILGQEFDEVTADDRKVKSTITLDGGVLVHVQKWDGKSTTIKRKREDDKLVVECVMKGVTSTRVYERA

Kd (Menin): > 500 µM
Kd [1]: > 500 µM
Kd [2]: > 500 µM
Kd [3]: 30.9 ± 4.54 µM
Kd [4]: > 500 µM
Structure (SMILES): C[S+]([O-])c1ccc(-c2nc(-c3ccncc3)c(-c3ccc(F)cc3)[nH]2)cc1 (centres unmarked) [SB203580]
